Laboratory results as given in paper PMC10313921, “A living ex vivo platform for functional, personalized brain cancer diagnosis” (Cell Reports Medicine, 2023).

Key:
Format in all cases: cell-based, human
[1] = tested on: 7 cell lines (MB231Br, LN229, U373WT, U373KO, GBM8, MS21, PDIPG); experiment: Drug screening on OBSCs, summary over the panel of seven tumor lines
Outline: (§1)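 Scores integrate therapeutic windows between tumor kill and slice toxicity (at DSS thresholds, EC50 slopes, curve areas) plus tumor-behavior parameters, giving −100 to +100. Tumor viability came from bioluminescence three days after drug or radiation, normalized to day-one fluorescence.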

[2] = tested on: U373KO (RAD18 knockout of U373WT via CRISPR); experiment: Drug screening of U373KO tumor foci on OBSCs; settings: U373 KO on OBSCs
Outline: as §1

[3] = tested on: MB231Br (breast cancer metastasis to brain); experiment: Drug screening of MB231Br tumor foci on OBSCs
[4] = tested on: U373WT (wild-type established GBM line); experiment: Drug screening of U373WT tumor foci on OBSCs; settings: U373 WT on OBSCs
Outline: as §1

[5] = tested on: PDIPG (low-passage pediatric patient-derived line); experiment: Drug screening of PDIPG tumor foci on OBSCs; settings: PDIPG on OBSCs
Outline: as §1

[6] = tested on: GBM8 (high-passage patient-derived GBM line); experiment: Drug screening of GBM8 tumor foci on OBSCs; settings: GBM8 on OBSCs
Outline: as §1

[7] = tested on: PGBM patient tumor tissue (pediatric GBM); experiment: Drug screening of uncultured patient tumor tissue PGBM on OBSCs
Procedure: (§2) Tumor cells were seeded onto OBSCs 2h after slicing as described above. One day after tumor seeding, six concentrations of each drug were diluted in the media underneath each culture insert, or XRad was applied using an X-Rad 320 Precision X-ray machine (n = 4 tumor foci per concentration; n ≥ 24 tumor foci per drug per cell line). Three days after treatment, the bioluminescence of live tumor cells was measured using an AMI optical imager (Spectral Instruments) and dose-response curves were generated. Tumor survival was normalized to day one tumor fluorescence and compared to an untreated control group.
(§3) To engraft onto OBSCs, the cryopreserved/thawed or fresh brain tumor tissue was filtered through a 100 μm cell strainer. Each 50 mg of tissue was transfected with 1mL mcherry-FLuc Lentivirus at 1.5e7 vg/ml with 1μL polybrene for 4h at 37°C. After incubation, the brain tumor tissue was washed with PBS three times to remove the residual virus and reconstituted in PBS with a final volume of 150 μL. Then the tissue solution was engrafted atop OBSCs at ∼0.5 mg tissue in 3 μL of PBS on each hemisphere of the slice. The OBSC engrafted with patient tumor tissue was incubated at 37°C with 5% CO2 and 95% humidity. The BSM was changed after 24h and subsequently every 3 days. Tumor treatment studies were executed as described above for tumor lines. The viability of the patient tissue was measured by an AMI optical imaging system with the addition of 1.5 mg/mL luciferin underneath the culture insert.
(§4) Several weighted parameters were factored into an overall drug sensitivity score.
(§5) For DSS parameters 1–6, therapeutic windows were calculated by comparing OBSC toxicity and tumor response at the doses where tumor kill passed through the DSS parameter (Table S1 and S3). For DSS parameter 7, the therapeutic window was calculated by comparing the slopes through the tumor EC50 and the OBSC tox EC50. For DSS parameter 8, the therapeutic window was calculated by comparing the areas under tumor kill and OBSC tox curves. Normalized therapeutic window ratios for DSS parameters 1–8 within each drug-tumor-OBSC interaction were calculated in the following manner: within each window, values ranged from +1 to −1, where values approaching +1 signify increasing tumor kill relative to normal tissue toxicity, and values approaching −1 indicate agents where tumors remained highly viable while toxicity to the normal OBSC tissue was elevated. DSS parameters 9–11 were determined based on the behavior of the tumor in response to the drug, as defined above.
(§6) All individually weighed parameters were added together to generate the DSS. Overall DSS from 0 to 100 signify increasing efficacy in tumor kill relative to OBSC toxicity, while scores from 0 to −100 describe scenarios in which tumors thrive more effectively than OBSCs for a given treatment. Dose-response values were calculated via linear interpolation of raw data, not from best-fit curve equations.

[8] = tested on: PIS patient tumor tissue (intracranial sarcoma); experiment: Drug screening of uncultured patient tumor tissue PIS on OBSCs; settings: Homo sapiens, PIS on OBSCs
Procedure: as §2, §3, §4, §5, §6

[9] = tested on: MS21 (low-passage patient-derived GBM line); experiment: Drug screening of MS21 tumor foci on OBSCs; settings: MS21 on OBSCs
Outline: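 Luciferase-expressing tumor cells seeded onto organotypic brain slice cultures; one day later treated with six drug concentrations in the medium, or X-irradiation. Bioluminescence read three days after treatment, normalised to day-one fluorescence and untreated controls. Dose-response values by linear interpolation; DSS combines weighted tumor-kill versus slice-toxicity parameters (−100 to 100).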

[10] = tested on: LN229 (established GBM line); experiment: Drug screening of LN229 tumor foci on OBSCs
Outline: as §1

[11] = Homo sapiens, U373 MG, dose required to kill 50% of the tumor
[12] = Homo sapiens, U373 MG, dose required to kill 90% of the tumor
[13] = Homo sapiens, U373 MG, dosed day 1, survival via bioluminescence day 4, linear interpolation
[14] = area under the dose-response curve, trapezoidal rule
[15] = dose required to kill 10% of the tumor
[16] = dose required to kill 25% of the tumor
[17] = Homo sapiens, dose required to kill 90% of the tumor, read-out: EC90
[18] = Homo sapiens, dosed day 1, survival via bioluminescence day 4, linear interpolation, read-out: IC50
[19] = dose required to kill 75% of the tumor

In the case of `Cn1nnc2c(C(N)=O)ncn2c1=O` [Temozolomide], the “DSS scores, range among tumors” value [1] is reported as −62 to 96, the EC50 [2, 11] is reported as 1.16 mM and the EC90 [2, 12] is reported as greater than 10 µM. For the same compound, the IC50 [2, 13] was 1.16 mM, the “Killing at highest dose” value [2] was 5.40E-01 fraction of tumor population killed and the AUC [2, 14] was 8.89E+02. The EC10 [2, 15] was 3.85 µM, the EC25 [2, 16] was 9.62 µM and the Slope ([2]; slope through the EC50) was -8.67E-04. The EC50 ([3]; Homo sapiens, MB231BR on OBSCs, dose required to kill 50% of the tumor) was greater than 10 µM, the EC90 ([3]; Homo sapiens, MB231BR on OBSCs, dose required to kill 90% of the tumor) was greater than 10 µM and the IC50 ([3]; Homo sapiens, MB231Br on OBSCs, dosed day 1, survival via bioluminescence day 4, linear interpolation) was greater than 10 µM. The “Killing at highest dose” value ([3]; MB231BR on OBSCs) was -3.30E-01 fraction of tumor population killed, the AUC ([3]; MB231BR on OBSCs, area under the dose-response curve, trapezoidal rule) was 2.58E+03 and the EC50 [4, 11] was greater than 10 µM. The EC90 [4, 12] was greater than 10 µM, the IC50 [4, 13] was greater than 10 µM and the “Killing at highest dose” value [4] was 2.20E-01 fraction of tumor population killed. It also gave an AUC [4, 14] of 1.52E+03, an EC10 [4, 15] of 67.3 µM and an EC25 [4, 16] of 96.2 µM. It also gave a Slope ([4]; slope through the EC50) of -9.14E-06, an EC90 [5, 17] greater than 10 µM and an IC50 [5, 18] greater than 10 µM. The “Killing at highest dose” value [5] was 2.90E-01 fraction of tumor population killed, the AUC [5, 14] was 1.88E+03 and the EC10 [5, 15] was 5 µM. The EC25 [5, 16] was 667 µM, the Slope ([5]; slope through the EC50) was -4.80E-05 and the “Killing at highest dose” value [6] was 1.00E+00 fraction of tumor population killed. The AUC [6, 14] was 9.52E+01, the EC10 [6, 15] was 1.52 µM and the EC25 [6, 16] was 3.79 µM. For the same compound, the EC75 [6, 19] was 31.2 µM, the Slope ([6]; slope through the EC50) was -6.60E-02 and the EC50 ([6]; Homo sapiens, dose required to kill 50% of the tumor, read-out: EC50) was 7.58 µM. The EC90 [6, 17] was 167 µM, the IC50 [6, 18] was 7.6 µM and the EC50 ([7]; Homo sapiens, PGBM on OBSCs, dose required to kill 50% of the tumor) was greater than 100 µM. For the same compound, the EC90 ([7]; Homo sapiens, PGBM on OBSCs, dose required to kill 90% of the tumor) was greater than 10 µM, the “DSS (drug sensitivity score)” value ([7]; PGBM patient tissue, scale -100 to +100) was 26 and the EC50 ([8]; dose required to kill 50% of the tumor) was greater than 100 µM. For the same compound, the EC90 ([8]; dose required to kill 90% of the tumor) was greater than 10 µM, the “Killing at highest dose” value [9] was -8.20E-01 fraction of tumor population killed and the AUC [9, 14] was 2.37E+03. The EC25 [9, 16] was 417 µM, the EC75 [9, 19] was 1250 µM and the Slope ([9]; slope through the EC50) was 5.47E-04. The “Killing at highest dose” value [10] was 3.50E-01 fraction of tumor population killed, the EC50 ([10]; Homo sapiens, LN-229, dose required to kill 50% of the tumor) was greater than 10 µM and the EC90 ([10]; Homo sapiens, LN-229, dose required to kill 90% of the tumor) was greater than 10 µM. For the same compound, the IC50 ([10]; Homo sapiens, LN-229, dosed day 1, survival via bioluminescence day 4, linear interpolation) was greater than 10 µM, the AUC [10, 14] was 1.53E+03 and the EC10 [10, 15] was 59.4 µM. It also gave an EC25 [10, 16] of 460 µM and a Slope ([10]; slope through the EC50) of -4.00E-05.
